Converted amounts (≈) assume the structure as drawn. The source made the active and inactive calls. The calls are words filed in the database; no cut-off is given here.
What was measured:
[1] = organism: Homo sapiens; assay: Spermicidal activity against human spermatozoa at 1.0% w/v; assay type: functional
[2] = system: Candida albicans; assay: Antifungal activity against Candida albicans MTCC 1346 after 48 hrs by broth micro dilution technique; assay type: functional, organism-based; conditions: MTCC 1346, 48 h
[3] = system: Candida albicans; assay: Antifungal activity against Candida albicans ATCC 10231 after 48 hrs by broth micro dilution technique; assay type: functional, organism-based; conditions: ATCC 10231, 48 h
[4] = system: Candida albicans; assay: Antifungal activity against Candida albicans after 48 hrs by broth micro dilution technique; assay type: functional, organism-based
[5] = system: Candida albicans; assay: Antifungal activity against Candida albicans MTCC 183 after 48 hrs by broth micro dilution technique; assay type: functional, organism-based; conditions: MTCC 183, 48 h
[6] = system: Candida albicans; assay: Antifungal activity against Candida albicans ATCC 10453 after 48 hrs by broth micro dilution technique; assay type: functional, organism-based; conditions: ATCC 10453, 48 h
[7] = system: Pichia kudriavzevii; assay: Antifungal activity against Candida krusei ATCC 6258 after 48 hrs by broth micro dilution technique; assay type: functional, organism-based; conditions: ATCC 6258, 48 h
[8] = system: Candida albicans; assay: Antifungal activity against Candida albicans ATCC 60193 after 48 hrs by broth micro dilution technique; assay type: functional, organism-based; conditions: ATCC 60193, 48 h
[9] = organism: Homo sapiens; assay: Spermicidal activity against human spermatozoa; assay type: functional
[10] = system: Candida parapsilosis; assay: Antifungal activity against Candida parapsilosis ATCC 22019 after 48 hrs by broth micro dilution technique; assay type: functional, organism-based; conditions: Lodderomyces parapsilosis, ATCC 22019, 48 h
[11] = system: Candida albicans; assay: Antifungal activity against Candida albicans ATCC 66027 after 48 hrs by broth micro dilution technique; assay type: functional, organism-based; conditions: ATCC 66027, 48 h

Compound: O=C(SCC(CN1CCOCC1)SSC(CSC(=O)N1CCOCC1)CN1CCOCC1)N1CCOCC1 (racemic)
- Activity [1]: inactive

Compound: CN1CCN(CC(CSC(=O)N2CCCCC2)SSC(CSC(=O)N2CCCCC2)CN2CCN(C)CC2)CC1 (racemic)
- IC50 [2]: > 50 µg/mL
- MIC [2]: 50 µg/mL (≈ 79 µM)
- IC50 [3]: > 50 µg/mL
- MIC [3]: 50 µg/mL (≈ 79 µM)
- IC50 [4]: 47 µg/mL (≈ 74.2 µM)
- MIC [4]: 50 µg/mL (≈ 79 µM)
- IC50 [5]: > 50 µg/mL
- MIC [5]: 50 µg/mL (≈ 79 µM)
- IC50 [6]: 46 µg/mL (≈ 72.7 µM)
- MIC [6]: > 50 µg/mL
- IC50 [7]: 35 µg/mL (≈ 55.3 µM)
- MIC [7]: 50 µg/mL (≈ 79 µM)
- IC50 [8]: 43 µg/mL (≈ 67.9 µM)
- MIC [8]: > 50 µg/mL
- MEC [9]: 0.05 %w/v
- IC50 [10]: 40 µg/mL (≈ 63.2 µM)
- MIC [10]: 50 µg/mL (≈ 79 µM)
- IC50 [11]: 40 µg/mL (≈ 63.2 µM)
- MIC [11]: > 50 µg/mL

Compound: O=C(SCC(CN1CCCC1)SSC(CSC(=O)N1CCCC1)CN1CCCC1)N1CCCC1 (racemic)
- IC50 [2]: > 50 µg/mL
- MIC [2]: > 50 µg/mL
- IC50 [3]: > 50 µg/mL
- MIC [3]: > 50 µg/mL
- IC50 [4]: 43 µg/mL (≈ 78.6 µM)
- MIC [4]: > 50 µg/mL
- IC50 [5]: 29 µg/mL (≈ 53 µM)
- MIC [5]: 50 µg/mL (≈ 91.4 µM)
- IC50 [6]: > 50 µg/mL
- MIC [6]: > 50 µg/mL
- IC50 [7]: 33 µg/mL (≈ 60.3 µM)
- MIC [7]: 50 µg/mL (≈ 91.4 µM)
- IC50 [8]: > 50 µg/mL
- MIC [8]: > 50 µg/mL
- MEC [9]: 0.002 %w/v
- IC50 [10]: 31 µg/mL (≈ 56.7 µM)
- MIC [10]: 50 µg/mL (≈ 91.4 µM)
- IC50 [11]: 42 µg/mL (≈ 76.8 µM)
- MIC [11]: > 50 µg/mL

Compound: O=C(SCC(CN1CCCC1)SSC(CSC(=O)N1CCCCC1)CN1CCCC1)N1CCCCC1 (racemic)
- IC50 [2]: 48 µg/mL (≈ 83.5 µM)
- MIC [2]: 50 µg/mL (≈ 87 µM)
- IC50 [3]: 48 µg/mL (≈ 83.5 µM)
- MIC [3]: 50 µg/mL (≈ 87 µM)
- IC50 [4]: 47 µg/mL (≈ 81.7 µM)
- MIC [4]: > 50 µg/mL
- IC50 [5]: 32 µg/mL (≈ 55.7 µM)
- MIC [5]: 50 µg/mL (≈ 87 µM)
- IC50 [6]: > 50 µg/mL
- MIC [6]: > 50 µg/mL
- IC50 [7]: 30 µg/mL (≈ 52.2 µM)
- MIC [7]: 50 µg/mL (≈ 87 µM)
- IC50 [8]: 41 µg/mL (≈ 71.3 µM)
- MIC [8]: > 50 µg/mL
- MEC [9]: 0.002 %w/v
- IC50 [10]: 48 µg/mL (≈ 83.5 µM)
- MIC [10]: 50 µg/mL (≈ 87 µM)
- IC50 [11]: 43 µg/mL (≈ 74.8 µM)
- MIC [11]: > 50 µg/mL

Compound: O=C(SCC(CN1C=CC=CC=C1)SSC(CSC(=O)N1CCCC1)CN1C=CC=CC=C1)N1CCCC1 (racemic)
- IC50 [2]: 50 µg/mL (≈ 84.6 µM)
- MIC [2]: 50 µg/mL (≈ 84.6 µM)
- IC50 [3]: > 50 µg/mL
- MIC [3]: > 50 µg/mL
- IC50 [4]: 50 µg/mL (≈ 84.6 µM)
- MIC [4]: > 50 µg/mL
- IC50 [5]: 26 µg/mL (≈ 44 µM)
- MIC [5]: 50 µg/mL (≈ 84.6 µM)
- IC50 [6]: > 50 µg/mL
- MIC [6]: > 50 µg/mL
- IC50 [7]: 32 µg/mL (≈ 54.2 µM)
- MIC [7]: 50 µg/mL (≈ 84.6 µM)
- IC50 [8]: 42 µg/mL (≈ 71.1 µM)
- MIC [8]: 50 µg/mL (≈ 84.6 µM)
- MEC [9]: 0.05 %w/v
- IC50 [10]: 42 µg/mL (≈ 71.1 µM)
- MIC [10]: 50 µg/mL (≈ 84.6 µM)
- IC50 [11]: > 50 µg/mL
- MIC [11]: > 50 µg/mL

Compound: CCN(CC)C(=O)SCC(CN1CCCCC1)SSC(CSC(=O)N(CC)CC)CN1CCCCC1 (racemic; 26)
- Activity [1]: inactive

Compound: OC(Cn1cncn1)(Cn1cncn1)c1ccc(F)cc1F [FLUCONAZOLE]
- IC50 [2]: 0.58 µg/mL (≈ 1.89 µM)
- MIC [2]: 2 µg/mL (≈ 6.53 µM)
- IC50 [3]: 0.35 µg/mL (≈ 1.14 µM)
- MIC [3]: 1 µg/mL (≈ 3.27 µM)
- IC50 [4]: 0.13 µg/mL (≈ 0.424 µM)
- MIC [4]: 0.5 µg/mL (≈ 1.63 µM)
- IC50 [5]: 0.26 µg/mL (≈ 0.849 µM)
- MIC [5]: 0.5 µg/mL (≈ 1.63 µM)
- IC50 [6]: 0.63 µg/mL (≈ 2.06 µM)
- MIC [6]: 1 µg/mL (≈ 3.27 µM)
- IC50 [7]: 1.38 µg/mL (≈ 4.51 µM)
- MIC [7]: 4 µg/mL (≈ 13.1 µM)
- IC50 [8]: 0.1 µg/mL (≈ 0.327 µM)
- MIC [8]: 0.25 µg/mL (≈ 0.816 µM)
- MEC [9]: 0.1 %w/v
- IC50 [10]: 0.21 µg/mL (≈ 0.686 µM)
- MIC [10]: 1 µg/mL (≈ 3.27 µM)
- IC50 [11]: 0.18 µg/mL (≈ 0.588 µM)
- MIC [11]: 0.25 µg/mL (≈ 0.816 µM)

Compound: O=C(SCC(CN1CCCCC1)SSC(CSC(=O)N1CCCC1)CN1CCCCC1)N1CCCC1 (racemic)
- IC50 [2]: > 50 µg/mL
- MIC [2]: > 50 µg/mL
- IC50 [3]: > 50 µg/mL
- MIC [3]: > 50 µg/mL
- IC50 [4]: > 50 µg/mL
- MIC [4]: > 50 µg/mL
- IC50 [5]: 42 µg/mL (≈ 73.1 µM)
- MIC [5]: > 50 µg/mL
- IC50 [6]: > 50 µg/mL
- MIC [6]: > 50 µg/mL
- IC50 [7]: 49 µg/mL (≈ 85.2 µM)
- MIC [7]: 50 µg/mL (≈ 87 µM)
- IC50 [8]: > 50 µg/mL
- MIC [8]: > 50 µg/mL
- MEC [9]: 0.05 %w/v
- IC50 [10]: 48 µg/mL (≈ 83.5 µM)
- MIC [10]: 50 µg/mL (≈ 87 µM)
- IC50 [11]: > 50 µg/mL
- MIC [11]: > 50 µg/mL

Compound: O=C(SCC(CN1CCCCC1)SSC(CSC(=O)N1CCCCC1)CN1CCCCC1)N1CCCCC1 (racemic)
- IC50 [2]: > 50 µg/mL
- MIC [2]: > 50 µg/mL
- IC50 [3]: > 50 µg/mL
- MIC [3]: > 50 µg/mL
- IC50 [4]: > 50 µg/mL
- MIC [4]: > 50 µg/mL
- IC50 [5]: > 50 µg/mL
- MIC [5]: > 50 µg/mL
- IC50 [6]: > 50 µg/mL
- MIC [6]: > 50 µg/mL
- IC50 [7]: > 50 µg/mL
- MIC [7]: > 50 µg/mL
- IC50 [8]: > 50 µg/mL
- MIC [8]: > 50 µg/mL
- MEC [9]: 0.05 %w/v
- IC50 [10]: > 50 µg/mL
- MIC [10]: > 50 µg/mL
- IC50 [11]: > 50 µg/mL
- MIC [11]: > 50 µg/mL

Compound: O=C(SCC(CN1CCCC1)SSC(CSC(=O)N1CCOCC1)CN1CCCC1)N1CCOCC1 (racemic)
- MEC [9]: 0.1 %w/v

Compound: CCCCCCCCCc1ccc(OCCOCCOCCOCCOCCOCCOCCOCCOCCO)cc1 [NONOXYNOL 9]
- IC50 [2]: > 50 µg/mL
- MIC [2]: > 50 µg/mL
- IC50 [3]: > 50 µg/mL
- MIC [3]: > 50 µg/mL
- IC50 [4]: 46 µg/mL (≈ 74.6 µM)
- MIC [4]: > 50 µg/mL
- IC50 [5]: 41 µg/mL (≈ 66.5 µM)
- MIC [5]: > 50 µg/mL
- IC50 [6]: > 50 µg/mL
- MIC [6]: > 50 µg/mL
- IC50 [7]: 48 µg/mL (≈ 77.8 µM)
- MIC [7]: 50 µg/mL (≈ 81.1 µM)
- IC50 [8]: > 50 µg/mL
- MIC [8]: > 50 µg/mL
- MEC [9]: 0.05 %w/v
- IC50 [10]: 47 µg/mL (≈ 76.2 µM)
- MIC [10]: 50 µg/mL (≈ 81.1 µM)
- IC50 [11]: > 50 µg/mL
- MIC [11]: > 50 µg/mL

Compound: O=C(SCC(CN1CCOCC1)SSC(CSC(=O)N1CCCCC1)CN1CCOCC1)N1CCCCC1 (racemic)
- MEC [9]: 0.1 %w/v

Compound: CCN(C)C(=O)SCC(CN1CCCCC1)SSC(CSC(=O)N(C)CC)CN1CCCCC1 (racemic)
- Activity [1]: inactive

Compound: O=C(SCC(CN1C=CC=CC=C1)SSC(CSC(=O)N1CCOCC1)CN1C=CC=CC=C1)N1CCOCC1 (racemic)
- IC50 [2]: 35 µg/mL (≈ 56.2 µM)
- MIC [2]: 50 µg/mL (≈ 80.3 µM)
- IC50 [3]: > 50 µg/mL
- MIC [3]: > 50 µg/mL
- IC50 [4]: > 50 µg/mL
- MIC [4]: > 50 µg/mL
- IC50 [5]: 25 µg/mL (≈ 40.1 µM)
- MIC [5]: 50 µg/mL (≈ 80.3 µM)
- IC50 [6]: > 50 µg/mL
- MIC [6]: > 50 µg/mL
- IC50 [7]: 32 µg/mL (≈ 51.4 µM)
- MIC [7]: 50 µg/mL (≈ 80.3 µM)
- IC50 [8]: 42 µg/mL (≈ 67.4 µM)
- MIC [8]: 50 µg/mL (≈ 80.3 µM)
- MEC [9]: 0.05 %w/v
- IC50 [10]: 39 µg/mL (≈ 62.6 µM)
- MIC [10]: 50 µg/mL (≈ 80.3 µM)
- IC50 [11]: > 50 µg/mL
- MIC [11]: > 50 µg/mL

Compound: O=C(SCC(CN1CCCCC1)SSC(CSC(=O)N1CCOCC1)CN1CCCCC1)N1CCOCC1 (racemic)
- MEC [9]: 0.5 %w/v

Compound: CN1CCN(CC(CSC(=O)N2CCCC2)SSC(CSC(=O)N2CCCC2)CN2CCN(C)CC2)CC1 (racemic)
- MEC [9]: 1 %w/v

Compound: CCN(CC)C(=O)SCC(CN1CCOCC1)SSC(CSC(=O)N(CC)CC)CN1CCOCC1 (configuration not stated)
- Activity [1]: inactive

Compound: CCN(C)C(=O)SCC(CN1CCN(C)CC1)SSC(CSC(=O)N(C)CC)CN1CCN(C)CC1 (racemic)
- Activity [1]: inactive

Compound: CCN(CC)C(=O)SCC(CN1CCCCC1)SSC(CSC(=O)N(CC)CC)CN1CCCCC1 (racemic; 29)
- Activity [1]: inactive

Compound: O=C(SCC(CN1CCOCC1)SSC(CSC(=O)N1CCCC1)CN1CCOCC1)N1CCCC1 (racemic)
- Activity [1]: inactive

— ChEMBL document CHEMBL1137452, “Synthesis of disulfide esters of dialkylaminocarbothioic acid as potent, non-detergent spermicidal agents” (Bioorg Med Chem, 2007)
